Laboratory results from ChEMBL document CHEMBL3046043, “Antihyperglycaemic activity of Sinularia firma and Sinularia erecta in streptozotocin-induced diabetic rats” (Med Chem Res, 2008).

Legend:
Homo sapiens = species on record: Homo sapiens; assay: Inhibition of glycogen phosphorylase (unknown origin) assessed as inorganic phosphate production at 100 uM after 30 min
[1] = biological target: T1, Glucose-6-phosphatase catalytic subunit 1 (Homo sapiens) (UniProt P35575); assay: Inhibition of glucose-6-phosphatase (unknown origin) using glucose-6-phosphate as substrate assessed as inorganic phosphate production at 100 uM after 30 min
T1 sequence (whole entry): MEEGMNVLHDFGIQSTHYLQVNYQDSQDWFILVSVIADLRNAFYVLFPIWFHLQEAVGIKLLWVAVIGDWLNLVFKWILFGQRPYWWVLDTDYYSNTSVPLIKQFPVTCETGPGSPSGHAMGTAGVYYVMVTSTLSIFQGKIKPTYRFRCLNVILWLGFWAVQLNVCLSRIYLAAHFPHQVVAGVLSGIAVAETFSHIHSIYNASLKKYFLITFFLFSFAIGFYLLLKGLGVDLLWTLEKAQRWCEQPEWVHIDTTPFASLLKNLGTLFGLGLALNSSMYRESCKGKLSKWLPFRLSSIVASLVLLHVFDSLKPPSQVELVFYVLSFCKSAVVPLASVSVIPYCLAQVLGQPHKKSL

[2] = biological target: T2, Tyrosine-protein phosphatase non-receptor type 1 (Homo sapiens) (UniProt P18031); assay: Inhibition of PTP1B (unknown origin) using p-nitrophenyl phosphate as substrate assessed as p-nitrophenolate ions production at 100 uM after 10 min
T2 sequence (whole entry): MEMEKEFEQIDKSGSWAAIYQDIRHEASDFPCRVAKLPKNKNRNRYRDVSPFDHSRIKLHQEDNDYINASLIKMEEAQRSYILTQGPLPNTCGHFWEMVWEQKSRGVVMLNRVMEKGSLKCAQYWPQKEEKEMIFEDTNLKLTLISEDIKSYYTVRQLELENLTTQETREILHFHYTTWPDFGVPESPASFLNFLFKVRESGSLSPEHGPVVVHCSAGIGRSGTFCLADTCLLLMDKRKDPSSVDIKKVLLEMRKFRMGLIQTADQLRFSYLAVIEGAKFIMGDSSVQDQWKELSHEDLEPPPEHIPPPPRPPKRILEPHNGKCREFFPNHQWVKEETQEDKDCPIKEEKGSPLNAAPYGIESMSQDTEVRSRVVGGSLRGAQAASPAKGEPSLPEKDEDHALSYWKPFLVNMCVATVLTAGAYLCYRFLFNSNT

Row | Compound | inhibition (Homo sapiens) | inhibition [1] | inhibition [2]
1 | CCCCCCCCCCCCCCCCCCCCCCO[C@H]1OC[C@H](O[C@H]2OC[C@H](O[C@H]3OC[C@H](O)[C@H](O)[C@H]3O)[C@H](OC(C)=O)[C@H]2O)[C@H](O)[C@H]1O | 8.9% | 8.6% | 5.9%
2 | CCCCCCCCCCCCCCCCCOC(=O)CCCCCCCCCCCCCCCC | 18.9% | 12.7% | 1.3%
3 | CCCCC/C=C/CC/C=C/[C@@H](O)[C@H](CO)NC(=O)CCCCCCCCCCCCCCC | 11.3% | 14.6% | 4.1%
4 | CCCCCCCCCCCCCCCCO[C@H]1OC[C@H](O[C@H]2OC[C@H](O[C@H]3OC[C@H](O)[C@H](O)[C@H]3O)[C@H](O)[C@H]2O)[C@H](O)[C@H]1O | 10.2% | 12% | 0.2%
5 | C=C(CCCC(C)C)[C@H]1CCC2C3CC=C4C[C@@H](O)CC[C@]4(C)C3CC[C@@]21C (some centres undefined) | 10.2% | 15.9% | 7.6%
6 | CCCCCCCCCCCCCCCCCCC(=O)OCCCCCCCCCCCCCCCCC | 17.2% | 8.56% | 11.1%
7 | CCCCCCCCCCC/C=C/C[C@@H](O)[C@H](CO)NC(=O)[C@H](O)CCCCCCCCCCCCCCCCCC | 9.5% | 10.2% | 1.3%
8 | CCCCCCCCCCCCCCCCCCOCC(O)CO (centres undefined) | 14.2% | 4.25% | 4.1%
